{"source": "patent US20240252506A1", "about": "(Hoffmann-La Roche Inc., priority 2021, published 2024)", "test_system": "Escherichia coli ATCC 25922", "assay": "Minimal Inhibitory Concentration (MIC) determination, broth microdilution (CLSI M07-A10)", "format": "cell-based", "details": "Escherichia coli, ATCC25922, strain Escherichia coli ATCC 25922, 18-24 hours at 35±2° C., lowest concentration for complete growth inhibition (no visible growth), read-out: Escherichia coli growth inhibition MIC", "summary_of_the_method": "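Broth microdilution per CLSI M07-A10; compounds in 2-fold serial dilutions; inoculum from 0.5 McFarland suspension diluted 1:200 in broth. Incubated 18-24 h at 35±2° C in ambient air; MIC (μg/mL) taken as lowest concentration giving no visible growth.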"}
{"compound": "CN(C)Cc1nc2c(F)c3c(c(F)c2[nH]1)CC(CNCCC1CN(c2cnc4c(n2)NC(=O)CO4)C(=O)O1)C3", "note": "(stereo not drawn) [Example 2, 6-[5-[2-[[2-[(dimethylamino)methyl]-4,8-difluoro-3,5,6,7-tetrahydrocyclopenta[f]benzimidazol-6-yl]methylamino]ethyl]-2-oxo-oxazolidin-3-yl]-4H-pyrazino[2,3-b][1,4]oxazin-3-one]", "values": [{"measurement": "MIC", "result": 0.5, "unit": "µg/mL"}]}
{"compound": "CN(C)Cc1nc2c(F)c3c(c(F)c2[nH]1)CC(CN1CCC2(CC1)CN(c1cnc4c(n1)NC(=O)CO4)C(=O)O2)C3", "note": "[Example 3, 6-[8-[[2-[(dimethylamino)methyl]-4,8-difluoro-3,5,6,7-tetrahydrocyclopenta[f]benzimidazol-6-yl]methyl]-2-oxo-1-oxa-3,8-diazaspiro[4.5]decan-3-yl]-4H-pyrazino[2,3-b][1,4]oxazin-3-one]", "values": [{"measurement": "MIC", "result": 0.25, "unit": "µg/mL"}]}
{"compound": "CC(C)(O)c1nc2c(F)c3c(c(F)c2[nH]1)CC(CN1CCC2(CC1)CN(c1cnc4c(n1)NC(=O)CO4)C(=O)O2)C3", "note": "[Example 4, 6-[8-[[4,8-difluoro-2-(1-hydroxy-1-methyl-ethyl)-3,5,6,7-tetrahydrocyclopenta[f]benzimidazol-6-yl]methyl]-2-oxo-1-oxa-3,8-diazaspiro[4.5]decan-3-yl]-4H-pyrazino[2,3-b][1,4]oxazin-3-one]", "values": [{"measurement": "MIC", "result": 0.5, "unit": "µg/mL"}]}
{"compound": "O=C1COc2ncc(N3CC4(CCN(CC5Cc6c(c(F)c7[nH]c(CN8CCS(=O)(=O)CC8)nc7c6F)C5)CC4)OC3=O)nc2N1", "note": "[Example 5, 6-[8-[[2-[(1,1-dioxo-1,4-thiazinan-4-yl)methyl]-4,8-difluoro-3,5,6,7-tetrahydrocyclopenta[f]benzimidazol-6-yl]methyl]-2-oxo-1-oxa-3,8-diazaspiro[4.5]decan-3-yl]-4H-pyrazino[2,3-b][1,4]oxazin-3-one]", "values": [{"measurement": "MIC", "result": 2, "unit": "µg/mL"}]}
{"compound": "CN1CCOC(c2nc3c(F)c4c(c(F)c3[nH]2)CC(CN2CCC3(CC2)CN(c2cnc5c(n2)NC(=O)CO5)C(=O)O3)C4)C1", "note": "(stereo not drawn) [Example 6, 6-[8-[[4,8-difluoro-2-(4-methylmorpholin-2-yl)-3,5,6,7-tetrahydrocyclopenta[f]benzimidazol-6-yl]methyl]-2-oxo-1-oxa-3,8-diazaspiro[4.5]decan-3-yl]-4H-pyrazino[2,3-b][1,4]oxazin-3-one]", "values": [{"measurement": "MIC", "result": 1, "unit": "µg/mL"}]}
{"compound": "CN(C)CCc1nc2c(F)c3c(c(F)c2[nH]1)CC(CN1CCC2(CC1)CN(c1cnc4c(n1)NC(=O)CO4)C(=O)O2)C3", "note": "[Example 7, 6-[8-[[2-[2-(dimethylamino)ethyl]-4,8-difluoro-3,5,6,7-tetrahydrocyclopenta[f]benzimidazol-6-yl]methyl]-2-oxo-1-oxa-3,8-diazaspiro[4.5]decan-3-yl]-4H-pyrazino[2,3-b][1,4]oxazin-3-one]", "values": [{"measurement": "MIC", "result": 0.125, "unit": "µg/mL"}]}
{"compound": "O=C1COc2ncc(N3CC4(CCN(CC5Cc6c(c(F)c7[nH]c(CN8CCOCC8)nc7c6F)C5)CC4)OC3=O)nc2N1", "note": "[Example 8, 6-[8-[[4,8-difluoro-2-(morpholinomethyl)-3,5,6,7-tetrahydrocyclopenta[f]benzimidazol-6-yl]methyl]-2-oxo-1-oxa-3,8-diazaspiro[4.5]decan-3-yl]-4H-pyrazino[2,3-b][1,4]oxazin-3-one]", "values": [{"measurement": "MIC", "result": 1, "unit": "µg/mL"}]}
{"compound": "CNCc1nc2c(F)c3c(c(F)c2[nH]1)CC(CN1CCC2(CC1)CN(c1cnc4c(n1)NC(=O)CO4)C(=O)O2)C3", "note": "[Example 9, 6-[8-[[4,8-Difluoro-2-(methylaminomethyl)-3,5,6,7-tetrahydrocyclopenta[f]benzimidazol-6-yl]methyl]-2-oxo-1-oxa-3,8-diazaspiro[4.5]decan-3-yl]-4H-pyrazino[2,3-b][1,4]oxazin-3-one]", "values": [{"measurement": "MIC", "result": 0.125, "unit": "µg/mL"}]}
{"compound": "NCc1nc2c(F)c3c(c(F)c2[nH]1)CC(CN1CCC2(CC1)CN(c1cnc4c(n1)NC(=O)CO4)C(=O)O2)C3.O=C(O)C(F)(F)F", "note": "[Example 10, 6-[8-[[2-(aminomethyl)-4,8-difluoro-3,5,6,7-tetrahydrocyclopenta[f]benzimidazol-6-yl]methyl]-2-oxo-1-oxa-3,8-diazaspiro[4.5]decan-3-yl]-4H-pyrazino[2,3-b][1,4]oxazin-3-one; 2,2,2-trifluoroacetic acid]", "values": [{"measurement": "MIC", "result": 0.125, "unit": "µg/mL"}]}
{"compound": "O=C(O)C(F)(F)F.O=C1COc2ncc(N3CC4(CCN(CC5Cc6c(c(F)c7[nH]c([C@@H]8CCCN8)nc7c6F)C5)CC4)OC3=O)nc2N1", "note": "[Example 11, 6-[8-[[4,8-difluoro-2-[(2S)-pyrrolidin-2-yl]-3,5,6,7-tetrahydrocyclopenta[f]benzimidazol-6-yl]methyl]-2-oxo-1-oxa-3,8-diazaspiro[4.5]decan-3-yl]-4H-pyrazino[2,3-b][1,4]oxazin-3-one; 2,2,2-trifluoroacetic acid]", "values": [{"measurement": "MIC", "result": 0.125, "unit": "µg/mL"}]}
{"compound": "CNCc1nc2c(F)c3c(cc2[nH]1)CC(CN1CCC2(CC1)CN(c1cnc4c(n1)NC(=O)CO4)C(=O)O2)C3.O=C(O)C(F)(F)F", "note": "(stereo not drawn) [Example 12, 6-[8-[[8-fluoro-2-(methylaminomethyl)-1,5,6,7-tetrahydrocyclopenta[f]benzimidazol-6-yl]methyl]-2-oxo-1-oxa-3,8-diazaspiro[4.5]decan-3-yl]-4H-pyrazino[2,3-b][1,4]oxazin-3-one; 2,2,2-trifluoroacetic acid]", "values": [{"measurement": "MIC", "result": 0.125, "unit": "µg/mL"}]}
{"compound": "CNCCc1nc2c(F)c3c(c(F)c2[nH]1)CC(CN1CCC2(CC1)CN(c1cnc4c(n1)NC(=O)CO4)C(=O)O2)C3.O=C(O)C(F)(F)F", "note": "[Example 13, 6-[8-[[4,8-difluoro-2-[2-(methylamino)ethyl]-3,5,6,7-tetrahydrocyclopenta[f]benzimidazol-6-yl]methyl]-2-oxo-1-oxa-3,8-diazaspiro[4.5]decan-3-yl]-4H-pyrazino[2,3-b][1,4]oxazin-3-one; 2,2,2-trifluoroacetic acid]", "values": [{"measurement": "MIC", "result": 0.25, "unit": "µg/mL"}]}
{"compound": "O=C(O)C(F)(F)F.O=C1COc2ccc(N3CC4(CCN(CC5Cc6c(c(F)c7[nH]c([C@H]8CCNC8)nc7c6F)C5)CC4)OC3=O)nc2N1", "note": "[Example 15, 6-[8-[[4,8-difluoro-2-[(3S)-pyrrolidin-3-yl]-3,5,6,7-tetrahydrocyclopenta[f]benzimidazol-6-yl]methyl]-2-oxo-1-oxa-3,8-diazaspiro[4.5]decan-3-yl]-4H-pyrido[3,2-b][1,4]oxazin-3-one; 2,2,2-trifluoroacetic acid]", "values": [{"measurement": "MIC", "result": 0.25, "unit": "µg/mL"}]}
{"compound": "O=C(O)C(F)(F)F.O=C1COc2ncc(N3CC4(CCN(CC5Cc6c(c(F)c7[nH]c(C8CNCCO8)nc7c6F)C5)CC4)OC3=O)nc2N1", "note": "(stereo not drawn) [Example 16, 6-[8-[(4,8-difluoro-2-morpholin-2-yl-3,5,6,7-tetrahydrocyclopenta[f]benzimidazol-6-yl)methyl]-2-oxo-1-oxa-3,8-diazaspiro[4.5]decan-3-yl]-4H-pyrazino[2,3-b][1,4]oxazin-3-one; 2,2,2-trifluoroacetic acid]", "values": [{"measurement": "MIC", "result": 0.25, "unit": "µg/mL"}]}
{"compound": "CN[C@H](C)c1nc2c(F)c3c(c(F)c2[nH]1)CC(CN1CCC2(CC1)CN(c1cnc4c(n1)NC(=O)CO4)C(=O)O2)C3.O=C(O)C(F)(F)F", "note": "[Example 17, 6-[8-[[4,8-difluoro-2-[(1R)-1-(methylamino)ethyl]-3,5,6,7-tetrahydrocyclopenta[f]benzimidazol-6-yl]methyl]-2-oxo-1-oxa-3,8-diazaspiro[4.5]decan-3-yl]-4H-pyrazino[2,3-b][1,4]oxazin-3-one; 2,2,2-trifluoroacetic acid]", "values": [{"measurement": "MIC", "result": 0.125, "unit": "µg/mL"}]}
{"compound": "O=C(O)C(F)(F)F.O=C1COc2ncc(N3CC4(CCN(CC5Cc6c(c(F)c7[nH]c([C@@H]8COCCN8)nc7c6F)C5)CC4)OC3=O)nc2N1", "note": "[Example 18, 6-[8-[[4,8-difluoro-2-[(3R)-morpholin-3-yl]-3,5,6,7-tetrahydrocyclopenta[f]benzimidazol-6-yl]methyl]-2-oxo-1-oxa-3,8-diazaspiro[4.5]decan-3-yl]-4H-pyrazino[2,3-b][1,4]oxazin-3-one; 2,2,2-trifluoroacetic acid]", "values": [{"measurement": "MIC", "result": 0.5, "unit": "µg/mL"}]}
{"compound": "CNCc1nc2c(F)c3c(c(F)c2[nH]1)CC(CNC1CC2(C1)CN(c1cnc4c(n1)NC(=O)CO4)C(=O)O2)C3", "note": "(stereo not drawn) [Example 19, 6-[2-[[4,8-difluoro-2-(methylaminomethyl)-3,5,6,7-tetrahydrocyclopenta[f]benzimidazol-6-yl]methylamino]-6-oxo-5-oxa-7-azaspiro[3.4]octan-7-yl]-4H-pyrazino[2,3-b][1,4]oxazin-3-one]", "values": [{"measurement": "MIC", "result": 0.5, "unit": "µg/mL"}]}
{"compound": "CNCCc1nc2c(F)c3c(c(F)c2n1C)CC(CN1CCC2(CC1)CN(c1cnc4c(n1)NC(=O)CO4)C(=O)O2)C3.O=C(O)C(F)(F)F", "note": "(stereo not drawn) [Example 20, 6-[8-[[4,8-difluoro-1-methyl-2-[2-(methylamino)ethyl]-6,7-dihydro-5H-cyclopenta[f]benzimidazol-6-yl]methyl]-2-oxo-1-oxa-3,8-diazaspiro[4.5]decan-3-yl]-4H-pyrazino[2,3-b][1,4]oxain-3-one; 2,2,2-trifluoroacetic acid]", "values": [{"measurement": "MIC", "result": 0.25, "unit": "µg/mL"}]}
{"compound": "O=C(O)C(F)(F)F.O=C1COc2ncc(N3CC4(CCN(CC5Cc6c(c(F)c7[nH]c([C@@H]8CCC(=O)N8)nc7c6F)C5)CC4)OC3=O)nc2N1", "note": "[Example 21, 6-[8-[[4,8-difluoro-2-[(2S)-5-oxopyrrolidin-2-yl]-3,5,6,7-tetrahydrocyclopenta[f]benzimidazol-6-yl]methyl]-2-oxo-1-oxa-3,8-diazaspiro[4.5]decan-3-yl]-4H-pyrazino[2,3-b][1,4]oxazin-3-one; 2,2,2-trifluoroacetic acid]", "values": [{"measurement": "MIC", "result": 1, "unit": "µg/mL"}]}
{"compound": "CNCc1nc2cc3c(c(F)c2o1)CC(CN1CCC2(CC1)CN(c1cnc4c(n1)NC(=O)CO4)C(=O)O2)C3.O=C(O)C(F)(F)F", "note": "(stereo not drawn) [Example 22, 6-[8-[[8-fluoro-2-(methylaminomethyl)-6,7-dihydro-5H-cyclopenta[f][1,3]benzoxazol-6-yl]methyl]-2-oxo-1-oxa-3,8-diazaspiro[4.5]decan-3-yl]-4H-pyrazino[2,3-b][1,4]oxazin-3-one; 2,2,2-trifluoroacetic acid]", "values": [{"measurement": "MIC", "result": 0.25, "unit": "µg/mL"}]}
{"compound": "O=C1COc2ncc(N3CC4(CCN(CC5Cc6c(c(F)c7c(nc8n7CCNC8)c6F)C5)CC4)OC3=O)nc2N1", "note": "(stereo not drawn) [Example 23, 6-[8-[(10,16-difluoro-2,5,8-triazatetracyclo[7.7.0.02,7.011,15]hexadeca-1(9),7,10,15-tetraen-13-yl)methyl]-2-oxo-1-oxa-3,8-diazaspiro[4.5]decan-3-yl]-4H-pyrazino[2,3-b][1,4]oxazin-3-one]", "values": [{"measurement": "MIC", "result": 0.5, "unit": "µg/mL"}]}
